Reference: PubChem BioAssay AID2060502 (Molecular Pharmacology Branch, DTP, NCI, 2025)

Tested on: 885724-159-R-J1-PDC complex spheroid viability
Test: Anticancer human tumor 885724-159-R-J1-PDC patient-derived pancreatic adenocarcinoma cell line growth inhibition [GQUAD]
Details: for IC50: curve of first compound; for viability, T/C: stronger effect = lower value
Description: DNA G-quadruplex Stabilizer Agents in Combinations in Complex Spheroids
A high-throughput screen of multi-cell type tumor spheroids was designed to identify active combinations of DNA G-quadruplex stabilizer agents and targeted small molecules. Complex spheroids include a stromal component modeled by human endothelial cells (HUVEC) and fibroblasts modeled by human mesenchymal stem cells (MSCs). The concentration ranges selected for each drug and investigational agent were based upon clinically achievable concentrations if the clinical Cmax of the agent was known.
Compounds. The drugs and investigational agents: pidnarulex (CX-5461; NSC782164), APTO-253 (NSC789042), BRACO-19 (NSC847499), peposertib (NSC802822), ceralasertib (NSC780249), elimusertib (NSC800525), camonsertib (NSC841442), AZD-1390 (NSC803789), olaparib (NSC753686), talazoparib (NSC767125), ART-558 (NSC835418), sotorasib (NSC818433), MRTX-1133 (NSC836407), SN-38 (NSC673596), topotecan (NSC609699), etoposide (NSC141540), doxorubicin (NSC123127), gemcitabine (NSC613327), 5-fluorouracil (NSC19893), paclitaxel (NSC125973), vemurafenib (NSC761431), panobinostat (NSC761190), R-306465 (JNJ-16241199; NSC773264), adavosertib (NSC754352), TP-3654 (NSC805149), carboplatin (NSC241240), KSQ-4279 (NSC840948), and staurosporine (NSC755774) were obtained from the National Cancer Institute (NCI) Developmental Therapeutics Program Chemical Repository (34). The FDA-approved anticancer drug set is available from the NCI Developmental Therapeutics Program. […] The stock solutions were prepared in dimethyl sulfoxide (DMSO, Sigma-Aldrich, St. Louis, MO, cat. D2650) at 800-fold the tested concentration and stored at -70 degrees C prior to their use. All drugs and investigational agents were tested over a range starting from a high concentration at or near the clinical Cmax and decreasing in half-log increments. If the clinical Cmax for an agent had not been determined, the highest concentration tested was 10 microM.
2.3 Cell Culture. All cells were maintained in an incubator at 37 degrees C and 5% CO2 with 95% humidity. The PDC lines were cultured according to standard operating procedures established by the NCI PDMR. All PDCs were thawed and cultured in Matrigel-coated flasks prepared with a working solution of 1X Ham's F-12 nutrient mix, without supplementation (Invitrogen, cat. 11765054), 100 U/mL penicillin-streptomycin (Invitrogen, cat. 15140122), and 2.5% Matrigel (Corning Inc., cat. 354248) for the first three passages. The 857933-349-R-J2-PDC line was cultured in 6C/Colon 1B media, which includes advanced DMEM/F-12 (Thermo Fisher Scientific, cat. 12634028), 10 mM HEPES (Thermo Fisher Scientific, cat. 15630080), 1X GlutaMAX supplement (Thermo Fisher Scientific, cat. 35050061), 0.1 mg/mL primocin (InvivoGen, cat. ant-pm-2), 10% defined fetal bovine serum, heat inactivated (HyClone Laboratories Inc., cat. SH30070.03HI), 50% L-WRN conditioned media (ATCC, cat. CRL-3276), 1.25 mM N-Acetyl-L-cysteine (Sigma-Aldrich, cat. A9165), 10 mM nicotinamide (Sigma-Aldrich, cat. N0636), 1X B-27 supplement (Thermo Fisher Scientific, cat. 17504044), 1X N-2 supplement (Thermo Fisher Scientific, cat. 17502048), 10 microM Y-27632 dihydrochloride (Tocris Bioscience, cat. 1254), and 50 ng/mL human EGF recombinant protein (Thermo Fisher Scientific, cat. PHG0311). The 485176-168-R4-J1-PDC line was cultured in Panc media, which includes all 6C/Colon 1B media components plus 100 ng/mL human FGF-10 (Thermo Fisher Scientific, cat. 100-26), 500 nM SB-431542 (Selleckchem, cat. S1067), and gastrin (Tocris, cat. 3006).
[…]

[1] = second compound 0.0316 µM, first compound 0.0316 µM
[2] = second compound 0.0316 µM, first compound 0.1 µM
[3] = second compound 0.0316 µM, first compound 0.316 µM
[4] = second compound 0.0316 µM, first compound 1 µM
[5] = second compound 0.0316 µM, first compound 3.16 µM
[6] = second compound 0.0316 µM, first compound 10 µM
[7] = second compound 0.1 µM, first compound 0.0316 µM
[8] = second compound 0.1 µM, first compound 0.1 µM
[9] = second compound 0.1 µM, first compound 0.316 µM
[10] = second compound 0.1 µM, first compound 1 µM
[11] = second compound 0.1 µM, first compound 3.16 µM
[12] = second compound 0.1 µM, first compound 10 µM
[13] = second compound 0.316 µM, first compound 0.0316 µM
[14] = second compound 0.316 µM, first compound 0.1 µM
[15] = second compound 0.316 µM, first compound 0.316 µM
[16] = second compound 0.316 µM, first compound 1 µM
[17] = second compound 0.316 µM, first compound 3.16 µM
[18] = second compound 0.316 µM, first compound 10 µM
[19] = second compound 1 µM, first compound 0.0316 µM
[20] = second compound 1 µM, first compound 0.1 µM
[21] = second compound 1 µM, first compound 0.316 µM
[22] = second compound 1 µM, first compound 1 µM
[23] = second compound 1 µM, first compound 3.16 µM
[24] = second compound 1 µM, first compound 10 µM
[25] = second compound 3.16 µM, first compound 0.0316 µM
[26] = second compound 3.16 µM, first compound 0.1 µM
[27] = second compound 3.16 µM, first compound 0.316 µM
[28] = second compound 3.16 µM, first compound 1 µM
[29] = second compound 3.16 µM, first compound 3.16 µM
[30] = second compound 3.16 µM, first compound 10 µM
[31] = second compound 10 µM, first compound 0.0316 µM
[32] = second compound 10 µM, first compound 0.1 µM
[33] = second compound 10 µM, first compound 0.316 µM
[34] = second compound 10 µM, first compound 1 µM
[35] = second compound 10 µM, first compound 3.16 µM
[36] = second compound 10 µM, first compound 10 µM
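Note: spheroids exposed to agents for seven days before readout.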
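Throughout, for viability, T/C: percent of vehicle control viability where 100% = DMSO wells.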

C=CCn1c(=O)c2cnc(Nc3ccc(N4CCN(C)CC4)cc3)nc2n1-c1cccc(C(C)(C)O)n1 + Cc1[nH]c2ccc(F)cc2c1-c1nc2c3cccnc3c3ncccc3c2[nH]1
IC50 (second compound 0.0316 µM): > 10000 nM
IC50 (second compound 0.1 µM): > 10000 nM
IC50 (second compound 0.316 µM): > 10000 nM
IC50 (second compound 1 µM): 558 nM
IC50 (second compound 3.16 µM): < 31.6 nM
IC50 (second compound 10 µM): 455 nM
viability, T/C [1]: 88.7%
viability, T/C [2]: 87.8%
viability, T/C [3]: 71.1%
viability, T/C [4]: 63.7%
viability, T/C [5]: 68.8%
viability, T/C [6]: 73.9%
viability, T/C [7]: 90.3%
viability, T/C [8]: 90%
viability, T/C [9]: 84.3%
viability, T/C [10]: 79.6%
viability, T/C [11]: 63.5%
viability, T/C [12]: 71.8%
viability, T/C [13]: 83.1%
viability, T/C [14]: 83.1%
viability, T/C [15]: 68.7%
viability, T/C [16]: 57.6%
viability, T/C [17]: 74%
viability, T/C [18]: 67.1%
viability, T/C [19]: 70.9%
viability, T/C [20]: 55.3%
viability, T/C [21]: 52.1%
viability, T/C [22]: 49.9%
viability, T/C [23]: 50.9%
viability, T/C [24]: 41.3%
viability, T/C [25]: 12.9%
viability, T/C [26]: 8.26%
viability, T/C [27]: 11.1%
viability, T/C [28]: 5.9%
viability, T/C [29]: 9.96%
viability, T/C [30]: 8.31%
viability, T/C [31]: 63.5%
viability, T/C [32]: 58.5%
viability, T/C [33]: 47.3%
viability, T/C [34]: 47%
viability, T/C [35]: 50%
viability, T/C [36]: 38.1%

CC1COCCN1c1cc(C2(O)CC3CCC(C2)O3)c2cnn(-c3ccn[nH]3)c2n1 (stereo unspecified) + Cc1cnc(CNC(=O)c2c(=O)c3ccc(N4CCCN(C)CC4)nc3n3c2sc2ccccc23)cn1
IC50 (second compound 0.0316 µM): 1120 nM
IC50 (second compound 0.1 µM): 1140 nM
IC50 (second compound 0.316 µM): 986 nM
IC50 (second compound 1 µM): 293 nM
IC50 (second compound 3.16 µM): 184 nM
IC50 (second compound 10 µM): 196 nM
viability, T/C [1]: 96.9%
viability, T/C [2]: 71%
viability, T/C [3]: 63.3%
viability, T/C [4]: 52.9%
viability, T/C [5]: 42.7%
viability, T/C [6]: 30.8%
viability, T/C [7]: 91.1%
viability, T/C [8]: 83.7%
viability, T/C [9]: 68.3%
viability, T/C [10]: 51.4%
viability, T/C [11]: 37.8%
viability, T/C [12]: 27.9%
viability, T/C [13]: 83.8%
viability, T/C [14]: 81.5%
viability, T/C [15]: 68.5%
viability, T/C [16]: 48%
viability, T/C [17]: 35%
viability, T/C [18]: 22.4%
viability, T/C [19]: 79.7%
viability, T/C [20]: 59.3%
viability, T/C [21]: 48.7%
viability, T/C [22]: 39.1%
viability, T/C [23]: 27.5%
viability, T/C [24]: 17.9%
viability, T/C [25]: 72.1%
viability, T/C [26]: 56.5%
viability, T/C [27]: 43.8%
viability, T/C [28]: 32.4%
viability, T/C [29]: 19%
viability, T/C [30]: 13.8%
viability, T/C [31]: 61.5%
viability, T/C [32]: 59.2%
viability, T/C [33]: 43.4%
viability, T/C [34]: 30.1%
viability, T/C [35]: 19.1%
viability, T/C [36]: 12.4%

COc1ccc([C@@H](O)c2cc(-c3ncnc4cc(N5CCOCC5)ccc34)c(F)cc2Cl)nn1 + Cc1cnc(CNC(=O)c2c(=O)c3ccc(N4CCCN(C)CC4)nc3n3c2sc2ccccc23)cn1
IC50 (second compound 0.0316 µM): 5430 nM
IC50 (second compound 0.1 µM): 6180 nM
IC50 (second compound 0.316 µM): 4570 nM
IC50 (second compound 1 µM): 4180 nM
IC50 (second compound 3.16 µM): 2870 nM
IC50 (second compound 10 µM): 2360 nM
viability, T/C [1]: 107%
viability, T/C [2]: 112%
viability, T/C [3]: 91.5%
viability, T/C [4]: 92.3%
viability, T/C [5]: 61.6%
viability, T/C [6]: 34.9%
viability, T/C [7]: 109%
viability, T/C [8]: 96.7%
viability, T/C [9]: 88.1%
viability, T/C [10]: 88.8%
viability, T/C [11]: 67.5%
viability, T/C [12]: 37%
viability, T/C [13]: 104%
viability, T/C [14]: 98.9%
viability, T/C [15]: 102%
viability, T/C [16]: 82.9%
viability, T/C [17]: 58.8%
viability, T/C [18]: 32.9%
viability, T/C [19]: 93.5%
viability, T/C [20]: 81.5%
viability, T/C [21]: 75.9%
viability, T/C [22]: 75.7%
viability, T/C [23]: 51.9%
viability, T/C [24]: 35.1%
viability, T/C [25]: 78.6%
viability, T/C [26]: 71.2%
viability, T/C [27]: 70.4%
viability, T/C [28]: 62.4%
viability, T/C [29]: 49.9%
viability, T/C [30]: 24.6%
viability, T/C [31]: 73.2%
viability, T/C [32]: 77.9%
viability, T/C [33]: 67.6%
viability, T/C [34]: 59.7%
viability, T/C [35]: 47.5%
viability, T/C [36]: 21.2%
